Among the data in patent US7772230B2, “Chroman compound, processes for its preparation, and its pharmaceutical use” (China Pharmaceutical University, priority 2006, dated 2010) are melting point and IC50 values, retold here.

One may read the melting point as the temperature, or range, at which the solid turns liquid. As a reminder, the pIC50 is −log10 of the IC50, conventionally taken in molar units. A lower pIC50 goes with a large IC50.

pIC50: −log10 of the molar value.

Data set [1] deals with T1, rapidly delayed rectifier potassium channel current (IKr) (Cavia porcellus, UniProt O08703).
T1 construct: the Guinea pig myocardial cells are separated with enzymolysis; endogenous in cells; host or cells: freshly isolated guinea pig ventricular myocytes
T1 sequence (O08703 1-1294): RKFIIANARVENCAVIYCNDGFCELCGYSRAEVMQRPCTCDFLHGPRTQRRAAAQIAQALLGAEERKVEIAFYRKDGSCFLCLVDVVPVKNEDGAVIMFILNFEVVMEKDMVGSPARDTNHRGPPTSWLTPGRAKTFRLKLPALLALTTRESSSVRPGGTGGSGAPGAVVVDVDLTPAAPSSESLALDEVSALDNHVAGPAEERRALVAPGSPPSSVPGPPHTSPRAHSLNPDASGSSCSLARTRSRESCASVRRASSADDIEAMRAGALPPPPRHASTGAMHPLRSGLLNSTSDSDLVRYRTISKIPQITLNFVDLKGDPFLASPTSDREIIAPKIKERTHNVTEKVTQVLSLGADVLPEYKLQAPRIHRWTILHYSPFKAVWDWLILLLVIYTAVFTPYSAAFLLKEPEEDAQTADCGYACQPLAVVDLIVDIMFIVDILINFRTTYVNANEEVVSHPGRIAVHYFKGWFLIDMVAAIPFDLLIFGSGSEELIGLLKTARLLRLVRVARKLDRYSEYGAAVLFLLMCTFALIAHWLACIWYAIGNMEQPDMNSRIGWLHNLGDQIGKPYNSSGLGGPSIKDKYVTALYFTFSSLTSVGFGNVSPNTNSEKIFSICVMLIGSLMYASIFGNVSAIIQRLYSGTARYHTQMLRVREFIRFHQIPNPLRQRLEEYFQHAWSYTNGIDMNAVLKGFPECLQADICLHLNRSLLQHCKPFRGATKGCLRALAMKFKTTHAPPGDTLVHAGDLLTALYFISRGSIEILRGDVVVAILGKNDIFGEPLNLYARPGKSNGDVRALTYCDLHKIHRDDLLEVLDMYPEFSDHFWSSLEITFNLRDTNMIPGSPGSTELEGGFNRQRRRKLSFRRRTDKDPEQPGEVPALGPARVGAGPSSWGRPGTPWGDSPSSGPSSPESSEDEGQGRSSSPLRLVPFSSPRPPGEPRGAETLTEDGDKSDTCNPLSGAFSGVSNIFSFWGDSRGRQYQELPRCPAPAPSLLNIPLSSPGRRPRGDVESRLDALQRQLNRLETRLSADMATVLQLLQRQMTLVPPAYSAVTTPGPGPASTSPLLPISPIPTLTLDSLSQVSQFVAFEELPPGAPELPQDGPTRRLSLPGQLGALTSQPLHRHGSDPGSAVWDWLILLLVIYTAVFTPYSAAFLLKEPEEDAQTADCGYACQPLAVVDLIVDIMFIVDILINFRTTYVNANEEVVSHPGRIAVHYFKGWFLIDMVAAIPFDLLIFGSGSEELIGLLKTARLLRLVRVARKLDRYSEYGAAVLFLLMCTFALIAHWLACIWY
Nature of the data set: whole cell patch clamp on isolated Guinea pig myocardial cells, IKr. It is filed as cell-based. To be noted: Guinea pig ventricular myocytes, current recorded 10 min after administration, 25-30° C. The protocol: (§1) Experimental title: using vitro pachynsis myocardial cells of Guinea pig, the activity is determined by the whole cell membrane Patch clamp technology.
(§2) experimental mechanism: the Guinea pig myocardial cells are separated with enzymolysis, and the rapid activation component and the slowly activation component of the delayed commutating current in the cardiac muscle cells are recorded by whole cell membrane Patch clamp. Each compound is added to the perfuse liquid for measuring current after dissolved at least 10 min. The collected data is analyzed in pulse-fit, the IC50 value for IKr and IKs of each compound is calculated.
(§3) animals: Guinea pigs, male, weight 300-400 g.
(§4) solution: calcium free Tyrode's solution
(§5) pole inner solution (mmol/L): KCl 140, MgCl2 1.0, K2-ATP 4.0, EGTA 10, HEPES 5.0, pH=7.2
(§6) Experimental apparatus: Patch clamp magnifier (EPC-10, Germany), inverted microscope (TE-2000U, Nikon, Japan), microelectrode puller (PIP5, Germany), micro-manipulator (PCS-5000, Burleigh, USA).
(§7) Then, the hearts are taken off, their ventricle are cut to smash and incubated in fresh enzyme solution at 37° C., the solution is gently stirred for 5-10 min, pouring off the supernatant fluid, diluted with Tyrode's solution containing CaCl2 1 mmol/L, that is for the first cell stored liquor; with the same operation to obtain the second and the third cell storages. […] The cells are laid for 2 h before use.
(§8) the cell liquor is put into the cell pool, after the cells adhering to the wall, they are perfused with outer liquor of the cells at the rate of 2 ml/min, cells that having calcium resistance and clear transverse striations are to be selected, the poles are moved to the cell surface by tridimensional manipulator. The high resistance block are formed between the pole top and the cell surface by under pressure, and more over using reduced pressure to broking cell membrane, the pole inner liquor can be connected to the cell inner liquor so as to form the whole cell state. After the compensation to the capacitance and series impedance compensation the voltage tongs are recorded. The signal is led by Ag/AgCl pole and magnified by the Patch clamp magnifier, the computer dispenses presetting stimulate pulse by procedure and add to cells, and the electrical signal generated from cells is translated by transducer, and stored in computer. All of the stimulate signal control, electric current, data sampling and analyses are carried out by pulse V8.60. Azimilide is used as positive drugs in the research. Each test compound is dissolved in anhydrous ethanol, diluted to the same concentration by water, and added to outer cell liquor, the top concentration of ethanol is 0.1%.
(§9) Stimulate parameter: the record of IKr and IKS: the back value of the either current is recorded. Using extra-cellular fluid containing 0.1 mmol/L CdCl2 for perfusion, sustaining the voltage at −50 mV, depolarized to 60 mV, keeping for 500 ms, and sustaining the voltage at −50 mV, keeping for 1000 ms, recording IKr; and then binding the voltage at −50 mV for 1000 ms, recording IKs.
In general terms: The patch-clamp technique gives a direct electrical read-out from membranes.

Data set [2] concerns the target T2, slowly delayed rectifier potassium channel current (IKs) (Cavia porcellus, UniProt O70344).
T2 construct: the Guinea pig myocardial cells are separated with enzymolysis; endogenous in cells; host or cells: freshly isolated guinea pig ventricular myocytes
T2 sequence (O70344 1-671): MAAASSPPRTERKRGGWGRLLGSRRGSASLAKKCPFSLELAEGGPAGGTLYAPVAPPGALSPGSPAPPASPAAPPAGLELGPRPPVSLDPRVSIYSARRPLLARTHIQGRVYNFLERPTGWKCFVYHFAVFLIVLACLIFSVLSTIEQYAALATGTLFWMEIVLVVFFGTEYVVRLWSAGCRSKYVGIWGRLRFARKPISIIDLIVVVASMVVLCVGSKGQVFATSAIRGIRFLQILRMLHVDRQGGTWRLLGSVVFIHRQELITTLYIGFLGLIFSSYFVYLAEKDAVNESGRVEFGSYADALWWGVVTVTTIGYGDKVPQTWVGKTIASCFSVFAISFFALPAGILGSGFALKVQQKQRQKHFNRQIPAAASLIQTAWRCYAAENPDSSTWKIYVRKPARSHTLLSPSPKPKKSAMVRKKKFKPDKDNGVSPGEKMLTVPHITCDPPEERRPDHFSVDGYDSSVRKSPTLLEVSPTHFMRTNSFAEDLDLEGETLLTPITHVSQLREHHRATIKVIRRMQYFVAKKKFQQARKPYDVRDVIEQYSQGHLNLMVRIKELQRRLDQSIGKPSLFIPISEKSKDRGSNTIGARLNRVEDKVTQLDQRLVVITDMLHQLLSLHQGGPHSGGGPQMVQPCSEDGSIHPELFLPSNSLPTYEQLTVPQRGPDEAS
T2 sequence (P41686 1-245 partner): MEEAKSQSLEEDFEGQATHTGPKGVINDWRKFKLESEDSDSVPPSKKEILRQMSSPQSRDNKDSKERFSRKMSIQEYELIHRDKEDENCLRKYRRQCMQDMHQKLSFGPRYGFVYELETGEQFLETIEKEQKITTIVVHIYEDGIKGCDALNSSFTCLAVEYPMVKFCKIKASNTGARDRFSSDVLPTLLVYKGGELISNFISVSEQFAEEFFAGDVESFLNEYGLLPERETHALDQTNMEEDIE
Nature of the data set: whole cell patch clamp on isolated Guinea pig myocardial cells, IKs. It is filed as cell-based. As to conditions: Guinea pig ventricular myocytes, current recorded 10 min after administration, 25-30° C. As to the method: as §1, §2, §3, §4, §5, §6, §7, §8, §9

In the case of `CN1CCN(CCCCN2C(=O)CN(/N=C3\CCOc4ccc(Cl)cc43)C2=O)CC1.O=C(O)/C=C/C(=O)O` [Ia example 2, 1-[4-(2,3-dihydro-6-chloro)benzopyran]imino-3-[4-(methyl-1-piperazine)butyl]-2,4-imidazole dione difumarate], the melting point is 230 to 232 °C. The compound also gave a pIC50 in data set [1] of 5.33. Also, the pIC50 in data set [2] is 7.14.
The like results for `CN1CCN(CCCCN2C(=O)CN(/N=C3\CCOc4ccc(C(N)=O)cc43)C2=O)CC1.O=C(O)/C=C/C(=O)O` [Ia example 4, 1-[4-(2,3-dihydro-6-carbamoyl)benzopyran]imino-3-[4-(methyl-1-piperazine)butyl]-2,4-imidazole dione difumarate] were, in that order, 192 to 194 °C, 6.35 and 6.48.
`CCCOc1ccc2c(c1)/C(=N/N1CC(=O)N(CCCCN3CCN(C)CC3)C1=O)CCO2.O=C(O)/C=C/C(=O)O` [Ib example 3, 1-[4-(2,3-dihydro-6-propoxy-)benzopyran]imino-3-[4-(methyl-1-piperazine)butyl]-2,4-imidazole dione difumarate]: the melting point lay in the range of 218 to 220 °C. Besides, in data set [1], the negative-log IC50 (pIC50) is 4.93. This compound showed a negative-log IC50 (pIC50) in data set [2] of 5.89.
The like results for `CCCCOc1ccc2c(c1)/C(=N/N1CC(=O)N(CCCCN3CCN(C)CC3)C1=O)CCO2.O=C(O)/C=C/C(=O)O` [Ib example 4, 1-[4-(2,3-dihydro-6-butoxy)benzopyran]imino-3-[4-(methyl-1-piperazine)butyl]-2,4-imidazole dione difumarate] were, in that order, 208 to 210 °C, 6.74 and 7.66.
